The values that follow come from patent publication US9376442B2, “Methylpyrrolopyrimidinecarboxamides” (Takeda GmbH, priority 2009, dated 2016).

The assay concerns the target T1, PDE5A1 (Homo sapiens, UniProt O76074).
T1 construct: from tissue; host or cells: human platelets from fresh donor blood (10,000 x g supernatant of sonicated lysate)
Description: Inhibition of type 5 phosphodiesterase (PDE5) activity, modified SPA test with human platelet lysate. It counts as biochemical. Conditions: 0.5 μM cGMP, read-out: PDE5A1 inhibitory values [measured as −log IC50 (mol/l)] (converted). In a few lines: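 Enzyme source is lysate from human platelets (10,000 g supernatant). Compound preincubated 5 min at 37° C in Tris pH 7.4 containing 1 μM motapizone and 10 nM of a PDE2 inhibitor. Reaction started with 0.5 μM cGMP ([3H] tracer) and run 15 min; SPA read-out, IC50 by non-linear regression.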

As to `COc1cc(-c2nc(C)nc3c(C(=O)NC4CCN(C(C)=O)CC4)c(C)[nH]c23)c(OCC2CC2)cc1F` [Example E173, N-(1-Acetylpiperidin-4-yl)-4-[2-(cyclopropylmethoxy)-4-fluoro-5-methoxyphenyl]-2,6-dimethyl-5H-pyrrolo[3,2-d]pyrimidine-7-carboxamide], the IC50 was under 1 nM.
As for `CCC(=O)N1CCC(NC(=O)c2c(C)[nH]c3c(-c4cc(OC)c(F)cc4OCC4CC4)nc(C)nc23)CC1` [Example E174, 4-[2-(Cyclopropylmethoxy)-4-fluoro-5-methoxyphenyl]-2,6-dimethyl-N-(1-propanoylpiperidin-4-yl)-5H-pyrrolo[3,2-d]pyrimidine-7-carboxamide], the IC50 was under 1 nM.
As for `COCC(=O)N1CCC(NC(=O)c2c(C)[nH]c3c(-c4cc(OC)c(F)cc4OCC4CC4)nc(C)nc23)CC1` [Example E175, 4-[2-(Cyclopropylmethoxy)-4-fluoro-5-methoxyphenyl]-N-[1-(methoxyacetyl)piperidin-4-yl]-2,6-dimethyl-5H-pyrrolo[3,2-d]pyrimidine-7-carboxamide], the IC50 is under 1 nM.
`COc1cc(-c2ncnc3c(C(=O)N[C@@H]4CCN(C(C)=O)C4)c(C)[nH]c23)c(OCC2CC2)cc1F` [Example E179, N-[(3R)-1-Acetylpyrrolidin-3-yl]-4-[2-(cyclopropylmethoxy)-4-fluoro-5-methoxyphenyl]-6-methyl-5H-pyrrolo[3,2-d]pyrimidine-7-carboxamide]: the IC50 was under 1 nM.
Take `CCC(=O)N1CC[C@@H](NC(=O)c2c(C)[nH]c3c(-c4cc(OC)c(F)cc4OCC4CC4)ncnc23)C1` [Example E180, 4-[2-(Cyclopropylmethoxy)-4-fluoro-5-methoxyphenyl]-6-methyl-N-[(3R)-1-propionylpyrrolidin-3-yl]-5H-pyrrolo[3,2-d]pyrimidine-7-carboxamide]: the IC50 was under 1 nM.
In the case of `COCC(=O)N1CC[C@@H](NC(=O)c2c(C)[nH]c3c(-c4cc(OC)c(F)cc4OCC4CC4)ncnc23)C1` [Example E181, 4-[2-(Cyclopropylmethoxy)-4-fluoro-5-methoxyphenyl]-N-[(3R)-1-(methoxyacetyl)pyrrolidin-3-yl]-6-methyl-5H-pyrrolo[3,2-d]pyrimidine-7-carboxamide], the IC50 was under 1 nM.
For `CCOC(=O)N1CC[C@@H](NC(=O)c2c(C)[nH]c3c(-c4cc(OC)c(F)cc4OCC4CC4)ncnc23)C1` [Example E182, Ethyl (3R)-3-[({4-[2-(cyclopropylmethoxy)-4-fluoro-5-methoxyphenyl]-6-methyl-5H-pyrrolo[3,2-d]pyrimidin-7-yl}carbonyl)amino]pyrrolidine-1-carboxylate], the IC50 is under 1 nM.
For `COc1cc(OCC2CC2)c(-c2ncnc3c(C(=O)N[C@@H]4CCN(C(C)=O)C4)c(C)[nH]c23)cc1F` [Example E186, N-[(3R)-1-Acetylpyrrolidin-3-yl]-4-[2-(cyclopropylmethoxy)-5-fluoro-4-methoxyphenyl]-6-methyl-5H-pyrrolo[3,2-d]pyrimidine-7-carboxamide], the IC50 is under 1 nM.
As for `CCC(=O)N1CC[C@@H](NC(=O)c2c(C)[nH]c3c(-c4cc(F)c(OC)cc4OCC4CC4)ncnc23)C1` [Example E187, 4-[2-(Cyclopropylmethoxy)-5-fluoro-4-methoxyphenyl]-6-methyl-N-[(3R)-1-propionylpyrrolidin-3-yl]-5H-pyrrolo[3,2-d]pyrimidine-7-carboxamide], the IC50 was under 1 nM.
On to `COCC(=O)N1CC[C@@H](NC(=O)c2c(C)[nH]c3c(-c4cc(F)c(OC)cc4OCC4CC4)ncnc23)C1` [Example E188, 4-[2-(Cyclopropylmethoxy)-5-fluoro-4-methoxyphenyl]-N-[(3R)-1-(methoxyacetyl)pyrrolidin-3-yl]-6-methyl-5H-pyrrolo[3,2-d]pyrimidine-7-carboxamide], for which the IC50 was under 1 nM.
To `Cc1[nH]c2c(-c3c(OCC4CC4)ccc4c3OCO4)ncnc2c1C(=O)NC1CCN(C(=O)CO)CC1` [Example F1, 4-[5-(Cyclopropylmethoxy)-1,3-benzodioxol-4-yl]-N-(1-glycoloylpiperidin-4-yl)-6-methyl-5H-pyrrolo[3,2-d]pyrimidine-7-carboxamide] belongs under 1 nM; to `Cc1[nH]c2c(-c3c(OCC4CC4)ccc4c3OCO4)ncnc2c1C(=O)NC1CCN(C(=O)[C@H](C)O)CC1` [Example F2, 4-[5-(Cyclopropylmethoxy)-1,3-benzodioxol-4-yl]-N-{1-[(2S)-2-hydroxypropanoyl]piperidin-4-yl}-6-methyl-5H-pyrrolo[3,2-d]pyrimidine-7-carboxamide], under 1 nM.
For the molecule `Cc1[nH]c2c(-c3c(OCC4CC4)ccc4c3OCO4)ncnc2c1C(=O)N[C@H]1CC[C@H](NC(=O)CO)CC1` [Example F3, 4-[5-(Cyclopropylmethoxy)-1,3-benzodioxol-4-yl]-N-[trans-4-(glycoloylamino)cyclohexyl]-6-methyl-5H-pyrrolo[3,2-d]pyrimidine-7-carboxamide], the IC50 was under 1 nM.
For `Cc1[nH]c2c(-c3c(OCC4CC4)ccc4c3OCO4)ncnc2c1C(=O)N[C@H]1CC[C@H](NC(=O)[C@H](C)O)CC1` [Example F4, 4-[5-(cyclopropylmethoxy)-1,3-benzodioxol-4-yl]-N-(trans-4-{[(2S)-2-hydroxypropanoyl]amino}cyclohexyl)-6-methyl-5H-pyrrolo[3,2-d]pyrimidine-7-carboxamide], the IC50 is under 1 nM.
Take `Cc1[nH]c2c(-c3c(OCC4CC4)ccc4c3OCO4)ncnc2c1C(=O)N[C@H]1CC[C@@H](NC(=O)CO)CC1` [Example F5, 4-[5-(Cyclopropylmethoxy)-1,3-benzodioxol-4-yl]-N-[cis-4-(glycoloylamino)cyclohexyl]-6-methyl-5H-pyrrolo[3,2-d]pyrimidine-7-carboxamide]: the IC50 is under 1 nM.
As for `Cc1[nH]c2c(-c3c(OCC4CC4)ccc4c3OCO4)ncnc2c1C(=O)N[C@H]1CC[C@@H](NC(=O)[C@H](C)O)CC1` [Example F6, 4-[5-(Cyclopropylmethoxy)-1,3-benzodioxol-4-yl]-N-(cis-4-{[(2S)-2-hydroxypropanoyl]amino}cyclohexyl)-6-methyl-5H-pyrrolo[3,2-d]pyrimidine-7-carboxamide], the IC50 is under 1 nM.
As for `Cc1[nH]c2c(-c3c(OCC4CC4)ccc4c3OCO4)ncnc2c1C(=O)N[C@@H]1CCN(C(=O)CO)C1` [Example F7, 4-[5-(Cyclopropylmethoxy)-1,3-benzodioxol-4-yl]-N-[(3R)-1-glycoloylpyrrolidin-3-yl]-6-methyl-5H-pyrrolo[3,2-d]pyrimidine-7-carboxamide], the IC50 is under 1 nM.
For the molecule `Cc1[nH]c2c(-c3c(OCC4CC4)ccc4c3OCO4)ncnc2c1C(=O)N[C@@H]1CCN(C(=O)[C@H](C)O)C1` [Example F8, 4-[5-(Cyclopropylmethoxy)-1,3-benzodioxol-4-yl]-N-{(3R)-1-[(2S)-2-hydroxypropanoyl]pyrrolidin-3-yl}-6-methyl-5H-pyrrolo[3,2-d]pyrimidine-7-carboxamide], the IC50 is under 1 nM.
For the molecule `Cc1[nH]c2c(-c3ccc(F)cc3OCC3CC3)ncnc2c1C(=O)NC1CCN(C(=O)CO)CC1` [Example F11, 4-[2-(Cyclopropylmethoxy)-4-fluorophenyl]-N-(1-glycoloylpiperidin-4-yl)-6-methyl-5H-pyrrolo[3,2-d]pyrimidine-7-carboxamide], the IC50 is under 1 nM.
The value for `Cc1[nH]c2c(-c3ccc(F)cc3OCC3CC3)ncnc2c1C(=O)NC1CCN(C(=O)[C@H](C)O)CC1` [Example F12, 4-[2-(Cyclopropylmethoxy)-4-fluorophenyl]-N-{1-[(2S)-2-hydroxypropanoyl]piperidin-4-yl}-6-methyl-5H-pyrrolo[3,2-d]pyrimidine-7-carboxamide] was under 1 nM; that for `Cc1[nH]c2c(-c3ccc(F)cc3OCC3CC3)ncnc2c1C(=O)N[C@H]1CC[C@H](NC(=O)CO)CC1` [Example F13, 4-[2-(Cyclopropylmethoxy)-4-fluorophenyl]-N-[trans-4-(glycoloylamino)cyclohexyl]-6-methyl-5H-pyrrolo[3,2-d]pyrimidine-7-carboxamide] was under 1 nM; that for `Cc1[nH]c2c(-c3ccc(F)cc3OCC3CC3)ncnc2c1C(=O)N[C@H]1CC[C@H](NC(=O)[C@H](C)O)CC1` [Example F14, 4-[2-(Cyclopropylmethoxy)-4-fluorophenyl]-N-(trans-4-{[(2S)-2-hydroxypropanoyl]amino}cyclohexyl)-6-methyl-5H-pyrrolo[3,2-d]pyrimidine-7-carboxamide] was under 1 nM.
Take `Cc1[nH]c2c(-c3ccc(F)cc3OCC3CC3)ncnc2c1C(=O)N[C@H]1CC[C@@H](NC(=O)CO)CC1` [Example F15, 4-[2-(cyclopropylmethoxy)-4-fluorophenyl]-N-[cis-4-(glycoloylamino)cyclohexyl]-6-methyl-5H-pyrrolo[3,2-d]pyrimidine-7-carboxamide]: the IC50 was under 1 nM.
The value for `Cc1[nH]c2c(-c3ccc(F)cc3OCC3CC3)ncnc2c1C(=O)N[C@H]1CC[C@@H](NC(=O)[C@H](C)O)CC1` [Example F16, 4-[2-(Cyclopropylmethoxy)-4-fluorophenyl]-N-(cis-4-{[(2S)-2-hydroxypropanoyl]amino}cyclohexyl)-6-methyl-5H-pyrrolo[3,2-d]pyrimidine-7-carboxamide] was under 1 nM; that for `Cc1[nH]c2c(-c3ccc(F)cc3OCC3CC3)ncnc2c1C(=O)N[C@@H]1CCN(C(=O)CO)C1` [Example F17, 4-[2-(Cyclopropylmethoxy)-4-fluorophenyl]-N-[(3R)-1-(hydroxyacetyl)pyrrolidin-3-yl]-6-methyl-5H-pyrrolo[3,2-d]pyrimidine-7-carboxamide] was 1 to 10 nM.
`Cc1[nH]c2c(-c3ccc(F)cc3OCC3CC3)ncnc2c1C(=O)N[C@@H]1CCN(C(=O)[C@H](C)O)C1` [Example F18, 4-[2-(cyclopropylmethoxy)-4-fluorophenyl]-N-{(3R)-1-[(2S)-2-hydroxypropanoyl]pyrrolidin-3-yl}-6-methyl-5H-pyrrolo[3,2-d]pyrimidine-7-carboxamide]: the IC50 is under 1 nM.
